Earlier results as cited in publication PMC8513935.

How the values were obtained:
[1] = log P octanol/water from commercial databases, averaged (the ESI); conditions: Octanol (wet), 25 C
[2] = experimental, compiled by the authors from the literature (the ESI cites the sources)
[3] = derived by the authors as gas->solvent minus gas->water (a hypothetical dry solvent; the ESI), not a two-phase measurement

SMILES: CCCCCCC
- log K of transfer, water to solvent [1]: 4.5 log10 K
- log K of transfer, gas to solvent ([2]; 1,2-Dichloroethane, 25 C): 2.98 log10 K
- log K of transfer, gas to solvent ([2]; 2-Methylpropan-1-ol, 25 C): 2.87 log10 K
- log K of transfer, gas to solvent ([2]; 2-Methylpropan-2-ol, 25 C): 2.9 log10 K
- log K of transfer, gas to solvent ([2]; 3-Methylbutan-1-ol, 25 C): 2.89 log10 K
- log K of transfer, gas to solvent ([2]; Acetonitrile, 25 C): 2.35 log10 K
- log K of transfer, gas to solvent ([2]; Butan-1-ol, 25 C): 2.88 log10 K
- log K of transfer, gas to solvent ([2]; Butanone, 25 C): 3.03 log10 K
- log K of transfer, gas to solvent ([2]; Butyronitrile, 25 C): 2.82 log10 K
- log K of transfer, gas to solvent ([2]; CCl4, 25 C): 3.48 log10 K
- log K of transfer, gas to solvent ([2]; Chlorobenzene, 25 C): 3.47 log10 K
- log K of transfer, gas to solvent ([2]; Chloroform, 25 C): 3.39 log10 K
- log K of transfer, gas to solvent ([2]; Cyclohexanone, 25 C): 2.95 log10 K
- log K of transfer, gas to solvent ([2]; Di-n-butyl ether, 25 C): 3.38 log10 K
- log K of transfer, gas to solvent ([2]; Dichloromethane, 25 C): 3.27 log10 K
- log K of transfer, gas to solvent ([2]; Ethanol, 25 C): 2.71 log10 K
- log K of transfer, gas to solvent ([2]; Hexadecane, 25 C): 3.17 log10 K
- log K of transfer, gas to solvent ([2]; Hexan-1-ol, 25 C): 2.93 log10 K
- log K of transfer, gas to solvent ([2]; Hexane, 25 C): 3.5 log10 K
- log K of transfer, gas to solvent ([2]; Methanol, 25 C): 2.5 log10 K
- log K of transfer, gas to solvent ([2]; Octan-1-ol, 25 C): 2.95 log10 K
- log K of transfer, gas to solvent ([2]; Perfluoroalkane, 25 C): 2.25 log10 K
- log K of transfer, gas to solvent ([2]; Propan-1-ol, 25 C): 2.74 log10 K
- log K of transfer, gas to solvent ([2]; Propan-2-ol, 25 C): 2.74 log10 K
- log K of transfer, gas to solvent ([2]; Propanone, 25 C): 2.81 log10 K
- log K of transfer, gas to solvent ([2]; Propionitrile, 25 C): 2.67 log10 K
- log K of transfer, gas to solvent ([2]; Tetrahydrofuran, 25 C): 3.34 log10 K
- log K of transfer, gas to solvent ([2]; Toluene, 25 C): 3.33 log10 K
- log K of transfer, gas to solvent ([2]; Water, 25 C): -1.96 log10 K
- log K of transfer, water to solvent ([3]; 1,2-Dichloroethane, 25 C): 4.94 log10 K
- log K of transfer, water to solvent ([3]; 2-Methylpropan-1-ol, 25 C): 4.83 log10 K
- log K of transfer, water to solvent ([3]; 2-Methylpropan-2-ol, 25 C): 4.86 log10 K
- log K of transfer, water to solvent ([3]; 3-Methylbutan-1-ol, 25 C): 4.85 log10 K
- log K of transfer, water to solvent ([3]; Acetone, 25 C): 4.77 log10 K
- log K of transfer, water to solvent ([3]; Acetonitrile, 25 C): 4.31 log10 K
- log K of transfer, water to solvent ([3]; Butan-1-ol, 25 C): 4.84 log10 K
- log K of transfer, water to solvent ([3]; Butanone, 25 C): 4.99 log10 K
- log K of transfer, water to solvent ([3]; Butyronitrile, 25 C): 4.78 log10 K
- log K of transfer, water to solvent ([3]; CCl4, 25 C): 5.44 log10 K
- log K of transfer, water to solvent ([3]; Chlorobenzene, 25 C): 5.43 log10 K
- log K of transfer, water to solvent ([3]; Chloroform, 25 C): 5.35 log10 K
- log K of transfer, water to solvent ([3]; Cyclohexanone, 25 C): 4.91 log10 K
- log K of transfer, water to solvent ([3]; Di-n-butyl ether, 25 C): 5.34 log10 K
- log K of transfer, water to solvent ([3]; Dichloromethane, 25 C): 5.23 log10 K
- log K of transfer, water to solvent ([3]; Ethanol, 25 C): 4.67 log10 K
- log K of transfer, water to solvent ([3]; Hexadecane, 25 C): 5.13 log10 K
- log K of transfer, water to solvent ([3]; Hexan-1-ol, 25 C): 4.89 log10 K
- log K of transfer, water to solvent ([3]; Hexane, 25 C): 5.46 log10 K
- log K of transfer, water to solvent ([3]; Methanol, 25 C): 4.46 log10 K
- log K of transfer, water to solvent ([3]; Octan-1-ol(dry), 25 C): 4.91 log10 K
- log K of transfer, water to solvent ([3]; Perfluoroalkane, 25 C): 4.21 log10 K
- log K of transfer, water to solvent ([3]; Propan-1-ol, 25 C): 4.7 log10 K
- log K of transfer, water to solvent ([3]; Propan-2-ol, 25 C): 4.7 log10 K
- log K of transfer, water to solvent ([3]; Propionitrile, 25 C): 4.63 log10 K
- log K of transfer, water to solvent ([3]; Tetrahydrofuran, 25 C): 5.3 log10 K
- log K of transfer, water to solvent ([3]; Toluene, 25 C): 5.29 log10 K

SMILES: CCCCCCCCCCO
- log K of transfer, water to solvent [1]: 4.12 log10 K
- log K of transfer, gas to solvent ([2]; Decan-1-ol, 25 C): 7.03 log10 K
- log K of transfer, gas to solvent ([2]; Hexadecane, 25 C): 5.61 log10 K
- log K of transfer, gas to solvent ([2]; Hexane, 25 C): 5.64 log10 K
- log K of transfer, gas to solvent ([2]; Propan-1-ol, 25 C): 7.13 log10 K
- log K of transfer, gas to solvent ([2]; Propan-2-ol, 25 C): 7.16 log10 K
- log K of transfer, gas to solvent ([2]; Water, 25 C): 2.67 log10 K
- log K of transfer, water to solvent ([3]; Decan-1-ol, 25 C): 4.36 log10 K
- log K of transfer, water to solvent ([3]; Hexadecane, 25 C): 2.94 log10 K
- log K of transfer, water to solvent ([3]; Hexane, 25 C): 2.97 log10 K
- log K of transfer, water to solvent ([3]; Propan-1-ol, 25 C): 4.46 log10 K
- log K of transfer, water to solvent ([3]; Propan-2-ol, 25 C): 4.49 log10 K
